# Measurements from patent US9394519B2, “Methods to produce mast cell culture” (Apollonian Biosystems Limited, priority 2011, dated 2016).
# Ends that are not written are not given here.
# Key:
# human mast cells [1] = experiment: Inhibition of IgE-dependent degranulation (histamine release in response to anti-IgE); type: cell-based; conditions: IgE-sensitized human mast cells challenged with anti-IgE; FIG. 5
# Method: Cultured mast cells at week 6, week 9 and week 12 were harvested, counted and seeded into 24-well plates in complete IMDM with 100 ng/ml SCF and 50 ng/ml IL-6. • IgE-dependent activation: Human mast cells were first sensitized by 0.5 μg/ml human myeloma IgE (Merck) in culture medium overnight. Unbound IgE was then removed by washing once with PBS. The cells were then resuspended in full HEPES buffer (FHB: 137 mM NaCl, 5.56 mM glucose, 12 mM HEPES, 2.7 mM KCl, 0.4 mM NaH2PO4 and 1 mM CaCl2 at pH 7.4) supplemented with 0.03% human albumin (HA) (for release of histamine and PGD2) or in IMDM with 10% FBS (for release of IL-8). […] 3.b Histamine Release Histamine released into the reaction buffer and the remaining granular histamine in the pellets were collected and analyzed by using Bran+Luebbe Autoanalyzer (AAIII Autoanalyzer, Bran+Luebbe, Germany) which chemically extracted histamine from the samples as described by Siraganian (Siraganian, R. P. 1974, Analytical Biochemistry 57(2): 383-394). […] For all stimulation studies, histamine released into the supernatant was expressed as a percentage of total cellular histamine content and all histamine release values were corrected for the spontaneous histamine release in buffer alone.
# mast cell tryptase = experiment: Cell-based assay for screening tryptase inhibitors (MCP-1 degradation in medium of anti-IgE-stimulated mast cells); set-up: species or system human; conditions: for Inhibition of the degradation of MCP-1 in the reaction medium: 6-hour reaction medium of anti-IgE-stimulated mast cells incubated with inhibitor at 37° C. for 16 hours, FIG. 7
# Method: Primary human mast cells with functional phenotype of connective tissue-type mast cells were derived from peripheral blood using the protocol described in Example 1. Cells were stimulated via the high-affinity IgE receptors (FcERI) using an anti-IgE antibody and kept under various conditions (see conditions A to G below) for 6 hours and 16 hours. The supernatants were then collected and the MCP-1 level in the supernatants was determined.
# human mast cells [2] = experiment: Mast cell activation: release of histamine, PGD2 and IL-8 in response to stimuli; type: cell-based; conditions: human mast cells generated in Example 1, cultured 6 weeks or more; FIGS. 1-4
# Method: To validate that the human mast cell cultures are functionally responsive, the release of histamine, prostaglandin D2 (PGD2) and interleukin-8 (IL-8) in response to stimulations by anti-IgE, aggregated IgG1, Toll-like receptor ligands, Substance P, compound 48/80 and ionophores was measured.
# Cultured mast cells at week 6, week 9 and week 12 were harvested, counted and seeded into 24-well plates in complete IMDM with 100 ng/ml SCF and 50 ng/ml IL-6. • IgE-dependent activation: Human mast cells were first sensitized by 0.5 μg/ml human myeloma IgE (Merck) in culture medium overnight. Unbound IgE was then removed by washing once with PBS. […]
# Histamine released into the reaction buffer and the remaining granular histamine in the pellets were collected and analyzed by using Bran+Luebbe Autoanalyzer (AAIII Autoanalyzer, Bran+Luebbe, Germany) which chemically extracted histamine from the samples as described by Siraganian (Siraganian, R. P. 1974, Analytical Biochemistry 57(2): 383-394). […] For all stimulation studies, histamine released into the supernatant was expressed as a percentage of total cellular histamine content and all histamine release values were corrected for the spontaneous histamine release in buffer alone. […]
compound,measurement,setting,value
CC(C)(C)NCC(O)c1ccc(O)c(CO)c1 (centres unmarked) [Salbutamol],Inhibition of IgE-dependent degranulation (histamine release),human mast cells [1],can be inhibited
NC(=O)[C@@H]1CCCN1C(=O)[C@H](CCCN=C(N)N)NC(=O)c1ccc2ccccc2c1O [APC366],MCP-1 level relative to condition A (peak MCP-1 level at the 6th hour after stimulation),"mast cell tryptase; inhibitor added at 6th hour, 16 hours at 37° C., FIG. 8",approximate the same
"Substance P (RPKPQQFFGLM; ends and bridges not checked; UniProt P20366 58-68, looked up)","Release of histamine, PGD2 and IL-8 in response to stimulation",human mast cells [2],"Release of histamine, PGD2 and IL-8 was observed"
CC(C)C[C@H](NC(=O)[C@@H](NC(=O)N[C@@H](Cc1ccccc1)C(=O)O)[C@@H]1CCN=C(N)N1)C(=O)N[C@H](C=O)Cc1ccccc1 [Chymostatin],Inhibition of the degradation of MCP-1 in the reaction medium,mast cell tryptase,not
CC(C)C[C@H](NC(=O)[C@@H](O)[C@H](N)Cc1ccccc1)C(=O)O [Bestatin],Inhibition of the degradation of MCP-1 in the reaction medium,mast cell tryptase,not
